How the values were obtained:
[1] = molecular target: T1, rat liver microsomal 5α-reductase (Rattus norvegicus, UniProt P24008); assay: 5α-reductase assay using rat liver microsomes (testosterone metabolism, HPLC and TLC); format: biochemical; details: for inhibition of 5α-reductase activity: at 10 and 100 μmol/L; for Inhibitory activity on 5α-reductase (% of control) / IC50: testosterone 3.5 μmol/L, 30 min, rat liver microsomes 40 μg/mL, HPLC; for Inhibitory activity on 5α-reductase (% of control): mean ± SEM, N = 3; for effect on 5α-reductase activity: examined at 0.1, 1, 10, and 100 μmol/L
T1 construct: The reaction was started with the addition of liver microsomes (20 μg protein); from tissue; host or cells: liver microsomes of male Sprague–Dawley rats
T1 sequence (P24008 1-259): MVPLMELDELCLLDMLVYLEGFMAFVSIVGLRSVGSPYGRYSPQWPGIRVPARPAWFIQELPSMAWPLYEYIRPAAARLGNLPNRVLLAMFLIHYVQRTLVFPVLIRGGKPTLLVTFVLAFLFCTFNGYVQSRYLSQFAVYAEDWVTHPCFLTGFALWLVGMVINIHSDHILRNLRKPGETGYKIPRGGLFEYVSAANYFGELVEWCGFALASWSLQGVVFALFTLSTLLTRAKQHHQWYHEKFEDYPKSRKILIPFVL
Protocol: Rat liver microsomes were prepared by the method of Lee et al.. Male Sprague–Dawley rats (body weight, 300 to 320 g; Clea Japan, Tokyo, Japan) were fasted overnight to decrease the concentration of liver glycogen and then sacrificed. The liver was excised and washed in ice-cold homogenizing buffer containing 0.32 mol/L sucrose, 1 mmol/L dithiothreitol (Wako Pure Chemical Industries), and 20 mmol/L potassium phosphate, pH 6.5. The following procedures were all carried out at 4°C. The tissue was minced with a pair of scissors and then homogenized in homogenizing buffer using a Potter-Elvehjem grinder. The homogenate was then centrifuged at 10 000 g for 10 min. The resulting pellet was washed with two pellet volumes of homogenizing buffer and centrifuged again. The supernatants from the two centrifugations were combined and further centrifuged at 105 000 g for 1 h. The resulting pellet (microsomes) was suspended in homogenizing buffer and centrifuged again. The microsomes were resuspended in homogenizing buffer. The microsome suspension was divided into small aliquots and stored at −80°C. The microsomes were diluted with 40 mmol/L potassium phosphate, pH 6.5, immediately before use. Unlike human liver, rat liver microsomes have the 5α-R1 but not the 5α-R2 isoform.
Briefly, the reaction solution was preincubated with or without a test sample in 1 mmol/L dithiothreitol, 40 mmol/L potassium phosphate, pH 6.5, 100 μmol/L NADPH (Oriental Yeast, Tokyo, Japan), and 3.5 μmol/L testosterone (Wako Pure Chemical Industries) in a final volume of 0.5 mL for 20 min at room temperature. The reaction was started with the addition of liver microsomes (20 μg protein). After incubation at 37°C for 30 min, the reaction solution was extracted with 2 mL ethyl acetate. The ethyl acetate phase (upper phase) was transferred to a tube and evaporated using a centrifugal concentrator (Tomy Seiko, Tokyo, Japan). Testosterone and the metabolites were measured by two chromatography methods, HPLC (Shimadzu, Kyoto, Japan) and TLC.
The residue was dissolved in acetonitrile and analyzed using the HPLC system. The reverse-phase HPLC analysis was performed on a C18 column (3.0 × 150 mm, GL Science, Japan) at a column oven temperature of 50°C and UV detection of 240 nm. The isocratic mobile phase of acetonitrile/water (50 : 50, v/v) was flowed at 0.4 mL/min through the column.
To detect the steroids by TLC, the residue containing steroids was taken up in ethanol and chromatographed on a TLC plate (Silica gel 60 F254, Merck, Darmstadt, Germany), using ethyl acetate-hexane (1 : 1, v/v) as the developing solvent system at room temperature. Testosterone, (Tokyo Chemical Industry Co., Tokyo, Japan) and 5α-androstane-3α,17β-diol (Sigma-Aldrich) were applied to TLC as androgen standards. The plate was exposed to 10% sulfuric acid using an atomizer and then heated on a hot plate. The fluorescent signals were visualized by irradiation of UV light at 302 nm using a ChemiDoc XRS Plus (BIO-RAD, Hercules, CA).

[2] = tested on: primary hamster sebocytes (Ha-SE); assay: cell cytotoxicity (XTT) in undifferentiated hamster sebocytes; details: 0.2% triton X-100, 24 h in the presence of EGF
Protocol: Four Figures and Two Tables
Hamster-derived sebaceous gland cells (Ha-SE) were precultured until confluent in the presence of 10 ng/mL epidermal growth factor (EGF), and further cultured with 10, 30 […]
vehicle in the presence of EGF. Twenty four hours later, cell cytotoxicity was measured […]
Fig. S2. Bioconversion of exogenous dihydrotestosterone to 5α-androstane-3,17-diol by rat liver microsomal enzymes […]
min in the presence or absence of rat liver microsomes (40 μg/mL) and the co-factors.
The metabolites were extracted with ethyl acetate after incubation, and analyzed by TLC. All androgen standards were applied at 0.1 μg/μL/spot. T.: testosterone, DHT: dihydrotestosterone, A.diol: 5α-androstane-3α,17β-diol

Molecule	inhibition of 5α-reductase activity [1]	Inhibitory activity on 5α-reductase (% of control) ([1]; test sample 0.1 μmol/L)	Inhibitory activity on 5α-reductase (% of control) ([1]; test sample 1 μmol/L)	Inhibitory activity on 5α-reductase (% of control) ([1]; test sample 10 μmol/L)	Inhibitory activity on 5α-reductase (% of control) ([1]; test sample 100 μmol/L)	IC50 [1] [µM]	effect on 5α-reductase activity [1]	cytotoxicity [2]
O=C(O[C@@H]1COC(=O)c2cc(O)c(O)c(O)c2-c2c(cc(O)c(O)c2O)C(=O)O[C@H]1[C@@H]1OC(=O)c2cc(O)c(O)c(O)c2-c2c(O)c(O)c(O)c3c2C(=O)O[C@H]1[C@@H]3O)c1cc(O)c(O)c(O)c1 [Casuarinin, casuarinin]	more than 50%	6.4 ± 1.4 % of control	10.8 ± 0.7 % of control	59.0 ± 2.0 % of control	110.1 ± 0.5 % of control	10.5	–	–
O=C(O[C@@H]1O[C@@H]2COC(=O)c3cc(O)c(O)c(O)c3-c3c(cc(O)c(O)c3O)C(=O)O[C@H]2[C@H](OC(=O)c2cc(O)c(O)c(O)c2)[C@H]1OC(=O)c1cc(O)c(O)c(O)c1)c1cc(O)c(O)c(O)c1 [Eugeniin, eugeniin]	more than 50%	4.2 ± 1.0 % of control	13.9 ± 0.5 % of control	62.5 ± 0.6 % of control	114.6 ± 0.6 % of control	10.9	–	–
O=C1OC[C@H]2OC(=O)c3cc(O)c(O)c(O)c3-c3c(O)c(O)c(O)c4c3C(=O)O[C@H]([C@H]3OC(=O)c5c-4c(O)c(O)c(O)c5[C@H]3O)[C@@H]2OC(=O)c2cc(O)c(O)c(O)c2-c2c1cc(O)c(O)c2O [Castalagin, castalagin]	more than 50%	4.9 ± 0.5 % of control	6.3 ± 1.2 % of control	70.7 ± 3.2 % of control	113.3 ± 7.6 % of control	8	–	–
COc1cc2ccc(=O)oc2c(O[C@@H]2O[C@H](CO)[C@@H](O)[C@H](O)[C@H]2O)c1O [fraxin]	–	–	–	–	–	–	did not show any effect	–
O=C(O[C@@H]1Cc2c(O)cc(O)cc2O[C@@H]1c1ccc(O)c(O)c1)c1cc(O)c(O)c(O)c1 [(−)-Epicatechin gallate, (−)-epicatechin gallate]	more than 50%	4.6 ± 0.2 % of control	4.9 ± 0.2 % of control	5.9 ± 0.3 % of control	69.4 ± 1.2 % of control	10 to 100	–	–
O=C(O[C@@H]1Cc2c(O)cc(O)cc2O[C@@H]1c1cc(O)c(O)c(O)c1)c1cc(O)c(O)c(O)c1 [(−)-Epigallocatechin gallate, (−)-epigallocatechin gallate]	more than 50%	3.7 ± 0.1 % of control	4.4 ± 0.4 % of control	5.3 ± 0.3 % of control	58.6 ± 2.7 % of control	10 to 100	–	–
stenophyllanin C	more than 50%	5.6 ± 0.6 % of control	4.6 ± 0.5 % of control	63.1 ± 0.4 % of control	102.3 ± 2.2 % of control	7.2	–	–
O=C(OC[C@H]1OC(O)[C@@](O)(COC(=O)c2cc(O)c(O)c(O)c2)[C@@H]1O)c1cc(O)c(O)c(O)c1 (stereo partly drawn) [Hamamelitannin, 2′,5-di-O-galloyl hamamelose]	–	–	–	–	–	–	did not show any effect	–
triton X-100 [reference compound]	–	–	–	–	–	–	–	significant cytotoxicity
O=C1c2c(O)cc(O)cc2O[C@H](c2ccc(O)c(O)c2)[C@H]1O [(+)-taxifolin]	–	–	–	–	–	–	did not show any effect	–
O=C(O)c1cc(O)c(O)c(O)c1 [gallic acid, Gallic acid]	–	–	–	–	–	–	did not show any effect	–
COC(=O)c1cc(O)c(O)c(O)c1 [methyl gallate]	–	–	–	–	–	–	did not show any effect	–
O=C(OC[C@H]1OC(OC(=O)c2cc(O)c(O)c(O)c2)[C@H](OC(=O)c2cc(O)c(O)c(O)c2)[C@@H](OC(=O)c2cc(O)c(O)c(O)c2)[C@@H]1O)c1cc(O)c(O)c(O)c1 (stereo partly drawn) [Tetragalloyl glucose, 1,2,3,6-tetra-O-galloyl glucose]	more than 50%	3.3 ± 0.5 % of control	18.7 ± 0.4 % of control	63.2 ± 3.0 % of control	102.8 ± 1.2 % of control	8.1	–	–
Oc1cc(O)c2c(c1)O[C@@H](c1cc(O)c(O)c(O)c1)[C@H](O)C2 [(−)-gallocatechin]	–	–	–	–	–	–	did not show any effect	–
Oc1cc(O)c2c(c1)O[C@H](c1ccc(O)c(O)c1)[C@@H](O)C2 [(+)-catechin]	–	–	–	–	–	–	did not show any effect	–
O=C(O[C@H]1[C@@H]2OC(=O)c3cc(O)c(O)c(O)c3-c3c(cc(O)c(O)c3O)C(=O)OC[C@H]2OC(O)[C@@H]1OC(=O)c1cc(O)c(O)c(O)c1)c1cc(O)c(O)c(O)c1 (stereo partly drawn) [1-Desgalloyl eugeniin, 1-desgalloyl eugeniin]	more than 50%	4.6 ± 0.2 % of control	9.2 ± 1.6 % of control	52.5 ± 2.4 % of control	107.9 ± 0.9 % of control	12.6	–	–
Oc1cc(O)c2c(c1)O[C@H](c1cc(O)c(O)c(O)c1)[C@@H](O)C2 [(+)-gallocatechin, (+)-Gallocatechin]	–	–	–	–	–	–	did not show any effect	–

— article PMC4325551, “Inhibition of Rat 5α-Reductase Activity and Testosterone-Induced Sebum Synthesis in Hamster Sebocytes by an Extract of Quercus acutissima Cortex” (Evidence-based Complementary and Alternative Medicine : eCAM, 2015)
